Assay results from patent US9701709B2 (REATA PHARMACEUTICALS, INC., priority 2012, dated 2017).
Like-named read-outs stand apart in the source and are kept apart here.

Tests used:
[1] = Plasma protein binding (ultracentrifugation), human
[2] = Metabolism in human liver microsomes; assay type: in vitro ADME; settings: 60-min incubation, NADPH and UGT
[3] = system: micronucleated polychromatic erythrocytes; assay: In vivo micronucleus study
[4] = Plasma protein binding (ultracentrifugation), mouse
cynomolgus monkeys = settings: for ALP / ALT / AST / Albumin / BUN / Chol / Cr / Glucose / TG / Tot Bil / Tot Prot: monkey, Day 14
[5] = Ocular absorption and distribution in rabbits; assay type: in vivo, rabbit
Description: Using rabbits, the ocular absorption and systemic pharmacokinetic behavior of RTA 408 was evaluated. RTA 408 was administered topically to the eye once per day for five days.

[6] = system: lactate in C2Cl2 muscle cells; assay: Lactate levels in C2Cl2 myotubes; assay type: cell-based, rodent; settings: differentiated C2Cl2 myotubes; 1 μM or 2 μM, 3 h
Description: Buffer was removed and saved for measurement of extracellular lactate levels. Cell debris was pelleted by centrifugation (10 min at 14,000 rpm) prior to measurement of lactate. To measure intracellular lactate, cells were suspended in 0.1% Triton X-100 in PBS and lysed by shearing with a 25 gauge needle. Cell lysate was centrifuged (10 min at 14,000 rpm, 4° C.) and lactate was measured in the supernatant. Intracellular and extracellular lactate was measured using the Lactate Assay Kit (BioVision, Catalog # K607-100).

[7] = system: total glutathione in AML-12 hepatocyte cell line; assay: Total glutathione (GSH-Glo) in AML-12; assay type: cell-based, mouse; settings: AML-12, 24 h, 15.6 nM
From the text: Glutathione and NADPH are critical factors required for the maintenance of cellular redox capacity. […] Data shown are representative of two independent experiments.

[8] = system: DU-145 prostate cancer cell line; assay: Cytotoxicity in combination with docetaxel in DU-145; assay type: cell-based; settings: RTA 408 0.125 to 0.75 μM
From the text: This evidence supports the concept that RTA 408 could act synergistically with cancer therapeutic agents and may be used in some embodiments to provide greater efficacy in treating cancer patients.

[9] = Oral pharmacokinetics in monkeys; assay type: in vivo, monkey; settings: oral suspension, 10 to 100 mg/kg
Description: Measurements were performed on TQD and QToF mass spectrometers (Waters).
Following oral administration of a suspension formulation at doses of 10 to 100 mg/kg, maximal concentrations were observed within 1 to 2 h in mice, and within 1 to 24 h in rats and monkeys.

[10] = system: cigarette smoke-induced COPD; assay: Cigarette smoke-induced COPD in mice; assay type: in vivo, mouse
Description: (a) KC; (b) IL-6; (c) TNF-α; (d) IFN-γ; (e) RANTES. […] An AIM analog (63355) was tested in the same study for comparison. Asterisks indicate a statistically significant difference form the CS control group.
At the end of the study, lung tissue and BALF were collected for analysis of inflammatory infiltrates and cytokines. […] An AIM analog (63355) was tested in the same study for comparison. 63355 is a compound of the formula: […]
Txnrd, Gst, and […] enzyme activities were measured using commercially available kits from Cayman Chemical (Ann Arbor, Mich.).

CYP2C9 = CYP2C9 (Homo sapiens, UniProt P11712); assay: CYP450 inhibition in pooled human liver microsomes, CYP2C9; assay type: in vitro ADME; settings: highest concentration tested (3 μM)
From the text: In addition, there was little or no evidence of metabolism-dependent inhibition of any of the enzymes tested.

CYP2C9, sequence (P11712 whole entry): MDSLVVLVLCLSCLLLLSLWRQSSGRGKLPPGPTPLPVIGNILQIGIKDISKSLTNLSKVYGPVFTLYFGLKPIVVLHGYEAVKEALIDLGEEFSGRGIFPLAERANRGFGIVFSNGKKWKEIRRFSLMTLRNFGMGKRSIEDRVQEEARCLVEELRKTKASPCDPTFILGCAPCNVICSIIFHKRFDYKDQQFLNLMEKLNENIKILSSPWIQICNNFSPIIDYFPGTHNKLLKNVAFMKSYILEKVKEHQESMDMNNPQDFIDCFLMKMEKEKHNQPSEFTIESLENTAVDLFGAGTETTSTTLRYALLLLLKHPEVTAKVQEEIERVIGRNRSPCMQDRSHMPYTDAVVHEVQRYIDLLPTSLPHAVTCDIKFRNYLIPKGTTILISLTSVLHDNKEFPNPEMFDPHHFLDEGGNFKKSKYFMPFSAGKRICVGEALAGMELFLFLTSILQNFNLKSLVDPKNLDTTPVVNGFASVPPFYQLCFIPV

CC1(C)CC[C@]2(NC(=O)C(C)(F)F)CC[C@]3(C)[C@H](C(=O)C=C4[C@@]5(C)C=C(C#N)C(=O)C(C)(C)[C@@H]5CC[C@]43C)[C@@H]2C1 [RTA 408, N-((4aS,6aR,6bS,8aR,12aS,14aR,14bS)-11-cyano-2,2,6a,6b,9,9,12a-heptamethyl-10,14-dioxo-1,2,3,4,4a,5,6,6a,6b,7,8,8a,9,10,12a,14,14a,14b-octadecahydropicen-4a-yl)-2,2-difluoropropanamide]
fraction unbound [1]: 0.03 | Parent molecule remaining [2]: < 10% | Change from Control (%) ([3]; 125 mg/kg, 24-h timepoint): −8% | Number of MPCE/1000 PCE (Mean +/− SD) ([3]; 125 mg/kg, 24-h timepoint): 0.3 ± 0.27 | Number of MPCE/PCE Scored ([3]; 125 mg/kg, 24-h timepoint): 3/10000 | PCE/Total Erythrocytes (Mean +/− SD) ([3]; 125 mg/kg, 24-h timepoint): 0.543 ± 0.03 | Change from Control (%) ([3]; 125 mg/kg, 48-h timepoint): −14% | Number of MPCE/1000 PCE (Mean +/− SD) ([3]; 125 mg/kg, 48-h timepoint): 0.2 ± 0.27 | Number of MPCE/PCE Scored ([3]; 125 mg/kg, 48-h timepoint): 2/10000 | PCE/Total Erythrocytes (Mean +/− SD) ([3]; 125 mg/kg, 48-h timepoint): 0.453 ± 0.03 | Change from Control (%) ([3]; 250 mg/kg, 24-h timepoint): −12% | Number of MPCE/1000 PCE (Mean +/− SD) ([3]; 250 mg/kg, 24-h timepoint): 0.3 ± 0.27 | Number of MPCE/PCE Scored ([3]; 250 mg/kg, 24-h timepoint): 3/10000 | PCE/Total Erythrocytes (Mean +/− SD) ([3]; 250 mg/kg, 24-h timepoint): 0.520 ± 0.06 | Change from Control (%) ([3]; 250 mg/kg, 48-h timepoint): −26% | Number of MPCE/1000 PCE (Mean +/− SD) ([3]; 250 mg/kg, 48-h timepoint): 0.2 ± 0.27 | Number of MPCE/PCE Scored ([3]; 250 mg/kg, 48-h timepoint): 2/10000 | PCE/Total Erythrocytes (Mean +/− SD) ([3]; 250 mg/kg, 48-h timepoint): 0.391 ± 0.02 | Change from Control (%) ([3]; 500 mg/kg, 24-h timepoint): −28% | Number of MPCE/1000 PCE (Mean +/− SD) ([3]; 500 mg/kg, 24-h timepoint): 0.0 ± 0.00 | Number of MPCE/PCE Scored ([3]; 500 mg/kg, 24-h timepoint): 0/10000 | PCE/Total Erythrocytes (Mean +/− SD) ([3]; 500 mg/kg, 24-h timepoint): 0.426 ± 0.07 | Change from Control (%) ([3]; 500 mg/kg, 48-h timepoint): −36% | Number of MPCE/1000 PCE (Mean +/− SD) ([3]; 500 mg/kg, 48-h timepoint): 0.3 ± 0.45 | Number of MPCE/PCE Scored ([3]; 500 mg/kg, 48-h timepoint): 3/10000 | PCE/Total Erythrocytes (Mean +/− SD) ([3]; 500 mg/kg, 48-h timepoint): 0.339 ± 0.05 | Change from Control (%) ([3]; 1000 mg/kg, 24-h timepoint): −15% | Number of MPCE/1000 PCE (Mean +/− SD) ([3]; 1000 mg/kg, 24-h timepoint): 0.2 ± 0.27 | Number of MPCE/PCE Scored ([3]; 1000 mg/kg, 24-h timepoint): 2/10000 | PCE/Total Erythrocytes (Mean +/− SD) ([3]; 1000 mg/kg, 24-h timepoint): 0.498 ± 0.05 | Change from Control (%) ([3]; 1000 mg/kg, 48-h timepoint): −35% | Number of MPCE/1000 PCE (Mean +/− SD) ([3]; 1000 mg/kg, 48-h timepoint): 0.1 ± 0.22 | Number of MPCE/PCE Scored ([3]; 1000 mg/kg, 48-h timepoint): 1/10000 | PCE/Total Erythrocytes (Mean +/− SD) ([3]; 1000 mg/kg, 48-h timepoint): 0.344 ± 0.04 | Change from Control (%) ([3]; 1500 mg/kg, 24-h timepoint): −15% | Number of MPCE/1000 PCE (Mean +/− SD) ([3]; 1500 mg/kg, 24-h timepoint): 0.4 ± 0.22 | Number of MPCE/PCE Scored ([3]; 1500 mg/kg, 24-h timepoint): 4/10000 | PCE/Total Erythrocytes (Mean +/− SD) ([3]; 1500 mg/kg, 24-h timepoint): 0.499 ± 0.06 | Change from Control (%) ([3]; 1500 mg/kg, 48-h timepoint): −39% | Number of MPCE/1000 PCE (Mean +/− SD) ([3]; 1500 mg/kg, 48-h timepoint): 0.4 ± 0.42 | Number of MPCE/PCE Scored ([3]; 1500 mg/kg, 48-h timepoint): 4/10000 | PCE/Total Erythrocytes (Mean +/− SD) ([3]; 1500 mg/kg, 48-h timepoint): 0.376 ± 0.05 | Change from Control (%) ([3]; 2000 mg/kg, 24-h timepoint): −10% | Number of MPCE/1000 PCE (Mean +/− SD) ([3]; 2000 mg/kg, 24-h timepoint): 0.2 ± 0.27 | Number of MPCE/PCE Scored ([3]; 2000 mg/kg, 24-h timepoint): 2/10000 | PCE/Total Erythrocytes (Mean +/− SD) ([3]; 2000 mg/kg, 24-h timepoint): 0.531 ± 0.05 | Change from Control (%) ([3]; 2000 mg/kg, 48-h timepoint): −32% | Number of MPCE/1000 PCE (Mean +/− SD) ([3]; 2000 mg/kg, 48-h timepoint): 0.1 ± 0.22 | Number of MPCE/PCE Scored ([3]; 2000 mg/kg, 48-h timepoint): 1/10000 | PCE/Total Erythrocytes (Mean +/− SD) ([3]; 2000 mg/kg, 48-h timepoint): 0.360 ± 0.03 | Genotoxicity in the In Vivo Micronucleus Study ([3]; 125-2000 mg/kg, 24-h and 48-h timepoints): 63415 is Negative for Genotoxicity in the In Vivo Micronucleus Study | fraction unbound [4]: 0.07 | NQO1, Gst, Gsr enzyme activity in monkey liver and lung (and rodent liver) (cynomolgus monkeys; 10, 30, and 100 mg/kg, 14 days): dose-dependent increases in NQO1, Gst, and Gsr enzyme activity | Clinical chemistry (cynomolgus monkeys; 14 days): Clinical chemistry data suggested no obvious toxicity | ALP (cynomolgus monkeys; 10 mg/kg): 382 U/L | ALT (cynomolgus monkeys; 10 mg/kg): 46 U/L | AST (cynomolgus monkeys; 10 mg/kg): 38 U/L | Albumin (cynomolgus monkeys; 10 mg/kg): 4 g/dL | BUN (cynomolgus monkeys; 10 mg/kg): 27 mg/dL | Chol (cynomolgus monkeys; 10 mg/kg): 144 mg/dL | Cr (cynomolgus monkeys; 10 mg/kg): 0.68 mg/dL | Glucose (cynomolgus monkeys; 10 mg/kg): 39 mg/dL | TG (cynomolgus monkeys; 10 mg/kg): 82 mg/dL | Tot Bil (cynomolgus monkeys; 10 mg/kg): 0.23 mg/dL | Tot Prot (cynomolgus monkeys; 10 mg/kg): 7.2 g/dL | ALP (cynomolgus monkeys; 30 mg/kg): 416 U/L | ALT (cynomolgus monkeys; 30 mg/kg): 47 U/L | AST (cynomolgus monkeys; 30 mg/kg): 43 U/L | Albumin (cynomolgus monkeys; 30 mg/kg): 4 g/dL | BUN (cynomolgus monkeys; 30 mg/kg): 20 mg/dL | Chol (cynomolgus monkeys; 30 mg/kg): 122 mg/dL | Cr (cynomolgus monkeys; 30 mg/kg): 0.58 mg/dL | Glucose (cynomolgus monkeys; 30 mg/kg): 53 mg/dL | TG (cynomolgus monkeys; 30 mg/kg): 64 mg/dL | Tot Bil (cynomolgus monkeys; 30 mg/kg): 0.2 mg/dL | Tot Prot (cynomolgus monkeys; 30 mg/kg): 7.2 g/dL | ALP (cynomolgus monkeys; 100 mg/kg): 390 U/L | ALT (cynomolgus monkeys; 100 mg/kg): 43 U/L | AST (cynomolgus monkeys; 100 mg/kg): 37 U/L | Albumin (cynomolgus monkeys; 100 mg/kg): 3.2 g/dL | BUN (cynomolgus monkeys; 100 mg/kg): 24 mg/dL | Chol (cynomolgus monkeys; 100 mg/kg): 93 mg/dL | Cr (cynomolgus monkeys; 100 mg/kg): 0.55 mg/dL | Glucose (cynomolgus monkeys; 100 mg/kg): 32 mg/dL | TG (cynomolgus monkeys; 100 mg/kg): 61 mg/dL | Tot Bil (cynomolgus monkeys; 100 mg/kg): 0.18 mg/dL | Tot Prot (cynomolgus monkeys; 100 mg/kg): 6 g/dL | Ocular tissue distribution ([5]; ocular topical administration): highest concentrations of the compound were found in the cornea, retina, or iris | Plasma concentration after ocular administration ([5]; topical to the eye once per day for five days): lower plasma concentration of RTA 408 relative to when RTA 408 is administered orally | Intracellular and extracellular lactate levels [6]: significantly increased intracellular and extracellular lactate levels in a dose-dependent manner | Increase in total glutathione [7]: > 2 fold | Cytotoxicity of docetaxel in combination [8]: amplified the cytotoxicity of the chemotherapeutic agent in a statistically significant fashion | Time of maximal concentrations [9]: 1 to 24 h | Lung Txnrd enzyme activity ([10]; 30 mg/kg): Txnrd enzyme activity was also induced | Lung NQO1 enzyme activity (decreased by cigarette smoke) ([10]; 3, 10, or 30 mg/kg): rescued this loss | Pro-inflammatory cytokines incl. KC and TNF-α ([10]; doses as low as 3 mg/kg daily for two weeks): significant suppression of pro-inflammatory cytokines | inhibition at 3 µM (CYP2C9): < 50%
